“Also recorded” adds a separate entry of the source. Like-named read-outs stand apart in the source and are kept apart here.
Assays:
FMDV serotype A (NP05) [1] = assay: microbe, parasite or virus in culture; format: cell-based, Foot-and-Mouth Disease Virus; settings: for EC50: BHK-21, 22 h, read-out: Antiviral Activity EC50, Viral Copy Number (RT-qPCR)
FMDV serotype A (NP05) [2] = assay: microbe, parasite or virus in culture; format: cell-based, Foot-and-Mouth Disease Virus; settings: for EC50: Foot-and-mouth disease virus, BHK-21, read-out: Antiviral Activity EC50, Normalized Delta Ct (RT-qPCR)
FMDV 3D^pol = FMDV 3D^pol (Foot-and-mouth disease virus serotype O, UniProt P03305); assay: cell-based; format: cell-based
FMDV 3C^pro = FMDV 3C^pro (Foot-and-mouth disease virus serotype O, UniProt P03305); format: cell-based
[3] = test system: FMDV serotype A (A/TAI/NP05/2017; NP05); format: cell-based, Foot-and-Mouth Disease Virus
BHK-21 cells = settings: for Cytotoxicity CC10 (maximum non-toxic concentration): hamster
in vitro = settings: hamster
[4] = test system: FMDV serotype A (A/TAI/NP05/2017; NP05); assay: in vitro; settings: hamster
[5] = test system: FMDV serotype A (A/TAI/NP05/2017; NP05); assay: microbe, parasite or virus in culture; settings: Foot-and-mouth disease virus
[6] = test system: influenza virus neuraminidase; settings: 5 µg/mL; cited from earlier work
influenza A (H1N1) virus = settings: cited from earlier work
[7] = BHK-21, read-out: Antiviral Activity EC50, FMDV Specific-Positive Cell (IPMA)

FMDV 3C^pro, sequence (P03305 1650-1862 limits assumed): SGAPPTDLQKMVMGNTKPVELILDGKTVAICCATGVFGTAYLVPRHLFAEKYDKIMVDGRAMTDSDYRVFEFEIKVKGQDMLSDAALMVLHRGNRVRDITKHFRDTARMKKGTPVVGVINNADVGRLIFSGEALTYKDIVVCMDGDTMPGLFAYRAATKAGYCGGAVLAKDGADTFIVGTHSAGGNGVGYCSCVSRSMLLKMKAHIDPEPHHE
FMDV 3D^pol, sequence (P03305 1863-2332 limits assumed): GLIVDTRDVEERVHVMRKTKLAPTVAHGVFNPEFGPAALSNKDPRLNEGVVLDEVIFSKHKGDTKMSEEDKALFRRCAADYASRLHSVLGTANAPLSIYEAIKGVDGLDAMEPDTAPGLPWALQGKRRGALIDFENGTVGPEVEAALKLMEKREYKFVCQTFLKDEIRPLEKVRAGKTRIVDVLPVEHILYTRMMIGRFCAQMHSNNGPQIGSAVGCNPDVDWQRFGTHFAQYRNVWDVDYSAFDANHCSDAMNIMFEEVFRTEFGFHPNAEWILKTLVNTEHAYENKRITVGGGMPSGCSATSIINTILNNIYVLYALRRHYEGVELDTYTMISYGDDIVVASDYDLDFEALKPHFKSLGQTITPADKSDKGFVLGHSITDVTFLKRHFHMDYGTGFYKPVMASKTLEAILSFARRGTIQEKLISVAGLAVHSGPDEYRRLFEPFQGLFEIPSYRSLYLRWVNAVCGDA

Molecule | EC50 (FMDV serotype A (NP05) [1]; Foot-and-mouth disease virus) | EC50 (FMDV serotype A (NP05) [2]) | Inhibition of FMDV infection / cytopathic effect, post-viral entry [3] | Cytotoxicity CC10 (maximum non-toxic concentration) (BHK-21 cells) | CC50 (in vitro) | EC50 [5, 7] | Toxicity to BHK-21 cells in words (BHK-21 cells) | other results
c1cc2c(cc1[C@H]1OC[C@H]3[C@@H]1CO[C@H]3c1ccc3c(c1)OCO3)OCO2 [(-)-Asarinin] | 36.7 µM | 31.7 µM | dose-dependent inhibition | 65.05 ± 1.81 µM | 90.4 ± 1.95 µM | 15.1 µM | – | Selective index SI, Viral Copy Number (RT-qPCR) (FMDV serotype A (NP05) [1]): 36.70 ± 1.57 (36.06 to 37.34) SI = 2.46; inhibition at 40 µM (FMDV serotype A (NP05) [1]; Foot-and-mouth disease virus, BHK-21, read-out: Inhibition of FMDV viral copy number): 50%; Inhibition of negative-strand RNA production (FMDV serotype A (NP05) [2]): > 60%; Selective index SI, Normalized Delta Ct (RT-qPCR) (FMDV serotype A (NP05) [2]): 31.67 ± 1.50 (30.47 to 32.87) SI = 2.86; Fold greater potency compared to sesamin (IC50, minigenome) (FMDV 3D^pol): approximately 7 fold; IC50 (FMDV 3D^pol): 10.4 µM; Selective index SI, GFP Signal (FMDV Minigenome) (FMDV 3D^pol): 10.37 ± 1.01 (9.56 to 11.18) SI = 8.72; Effect on FMDV 3C^pro activity (FMDV 3C^pro): Neither sesamin nor (-)-asarinin inhibited FMDV 3C^pro; also recorded: no activity observed; Toxicity to BHK-21 cells in words (BHK-21 cells; at 100 µM): moderate cytotoxicity; selectivity ratio [4]: 5.99; EC50 ([5]; BHK-21, read-out: Effect against FMDV infection (range of EC50 values)): 15.1 to 36.7 µM
Gomisin A | – | – | no potent effect | – | – | – | – | –
COc1cc([C@@H]2c3cc4c(cc3[C@H](O)[C@H]3COC(=O)[C@@H]23)OCO4)cc(OC)c1OC [Picropodophyllotoxin] | – | – | – | 50.07 ± 1.70 µM | 136 ± 2.13 µM | – | moderate cytotoxicity | –
c1cc2c(cc1[C@H]1OC[C@H]3[C@@H]1CO[C@@H]3c1ccc3c(c1)OCO3)OCO2 [Sesamin] | 82.4 µM | 60.9 µM | dose-dependent inhibition | 254.20 ± 2.40 µM | 604.6 ± 2.78 µM | 53 µM | – | Inhibition of FMDV viral copy number in words (FMDV serotype A (NP05) [1]): markedly significant inhibition; Selective index SI, Viral Copy Number (RT-qPCR) (FMDV serotype A (NP05) [1]): 82.43 ± 1.92 (81.65 to 83.21) SI = 7.33; Selective index SI, Normalized Delta Ct (RT-qPCR) (FMDV serotype A (NP05) [2]): 60.94 ± 1.79 (60.21 to 61.67) SI = 9.92; IC50 (FMDV 3D^pol): 74.9 µM; Selective index SI, GFP Signal (FMDV Minigenome) (FMDV 3D^pol): 74.89 ± 1.87 (73.39 to 76.39) SI = 8.07; Effect on FMDV 3C^pro activity (FMDV 3C^pro): Neither sesamin nor (-)-asarinin inhibited FMDV 3C^pro; Toxicity to BHK-21 cells in words (BHK-21 cells; at 100 µM): mild toxicity; Inhibition of influenza virus neuraminidase [6]: inhibited influenza virus neuraminidase; selectivity ratio [4]: 11.4; Cytotoxicity (influenza A (H1N1) virus): without exhibiting cytotoxicity; Inhibition of influenza A (H1N1) virus (reduced inflammatory cytokines) (influenza A (H1N1) virus): inhibit influenza A (H1N1) virus
NC(=O)c1ncn([C@@H]2O[C@H](CO)[C@@H](O)[C@H]2O)n1 [Ribavirin, reference compound] | 32.8 µM | 29.4 µM | – | – | ≥ 500 µM | 39.6 µM | – | –
COc1cc(C2OCC3C(c4cc(OC)c(OC5OC(CO)C(O)C(O)C5O)c(OC)c4)OCC23)cc(OC)c1OC1OC(CO)C(O)C(O)C1O (stereo not shown) [Eleutheroside E] | – | – | no potent effect | 11.39 ± 1.05 µM | 20.8 ± 1.31 µM | – | moderate cytotoxicity | –
OC12COC(c3ccc4c(c3)OCO4)C1COC2c1ccc2c(c1)OCO2 (stereo not shown) [Paulownin] | – | – | – | 147.00 ± 2.167 µM | 860.6 ± 2.93 µM | – | mild toxicity | –

Source: publication PMC12568301 (Veterinary Sciences, 2025)
